Results reported in patent EP0655439A2, “5,6-Bicyclic glycoprotein IIb IIIa antagonists useful in inhibition of platelet aggregation” (ELI LILLY AND COMPANY, priority 1993, dated 1995).

Columns and labels:
[1] = target: T1, GPIIb-IIIa (Homo sapiens, UniProt P05106+P08514); assay: GPIIb-IIIa ELISA assay (inhibition of fibrinogen binding to immobilized receptor); details: purified platelet GPIIb-IIIa coated on plates; biotinylated fibrinogen 10 nM; 3 hours at 25 °C
T1 construct: Purified platelet GPIIb-IIIa receptor was prepared as described by Fitzgerald, L.A., et al; from tissue; host or cells: platelets (purified by the method of Fitzgerald et al., Anal Biochem 1985)
Description: In the following assay, GPllb-Illa is prepared in purified form, by a method such as described by Fitzgerald, L.A., et al., Anal Biochem (1985) 151:159-177,(the disclosure of which is incorporated herein by reference). GPIIb-IIIa is coated onto microtiter plates. The coated support is then contacted with fibrinogen and with the test material and incubated for a sufficient time to permit maximal binding of fibrinogen to the immobilized GPIIb-IIIa. Fibrinogen is typically provided at a concentration of about 5-50 nM and the test material can, if desired, be added at a series of dilution. Typical incubations are 2-4 hr at 25°C, the time and temperature being interdependent.
After incubation, the solution containing the fibrinogen and test material is removed and the level of binding of fibrinogen measured by quantitating bound fibrinogen to GPllb-llla. Any suitable means of detection may be used, but it is convenient to employ labeled fibrinogen, for example using biotinylated labels. Such methods are well known in the art.
Purified platelet GPIIb-IIIa receptor was prepared as described by Fitzgerald, L.A., et al., Anal Biochem (1985) 151:169-177. Vitronectin receptor was prepared as described by Smith, J.W., J. Bioi Chem (1988) 263:18726-18731. After purification, the receptors were stored in 0.1% Triton X-100 at 0.1-1.0 mg/ml.
The receptors were coated to the wells of 96-well flat-bottom ELISA plates (Linbro EIA-Plus microtiter plate, Flow Laboratories) after diluting 1:200 with a solution of 20 mM Tris-HCI, 150 MM NaCi, 1 mM CaCl2, pH 7.4, to reduce the Triton x-100 concentration to below its critical micellar concentration and adding an aliquot of 100 ul to each well. The wells were all allowed to incubate overnight at 4°C, and then aspirated to dryness. Additional sites were blocked by the addition of bovine serum albumin (BSA) at 35 mg/ml in the above buffer for 2 hours at 30°C to prevent nonspecific binding. The wells were then washed once with binding buffer ([…] Tris-HCI, 100 mM Nacl 2 mM CaC12, 1 mg/ml BSA).
The corresponding ligands (fibrinogen, von Willebrand Factor, orvitronectin) were conjugated to biotin using commercially available reagents and standard protocols. The labeled ligands were added to the receptor- coated wells at final concentration of 10 nM (100 ul/well) and incubated for 3 hours at 25 °C in the presence or absence of the test samples. After incubation, the wells are aspirated to dryness and bound ligand is quan- titated.
The bound protein is detected by the addition of antibiotin antibody conjugated to alkaline phosphatase followed by addition of substrate (p-nitrcphenyl phosphate), and determination of the optical density of each well at 405 nM. Decreased color development is observed in wells incubated with test samples which inhibit binding of ligand to receptor.

[2] = system: human platelet-rich plasma; assay: Platelet aggregation assay (PRP), Aggregation-Human/PRP/ADP; format: cell-based; details: 1 min, 1 minute at 37°C before aggregating agent, most often ADP 5 µM
Description: In addition to the ELISA GPllb-Illa assay previously described the Aggregation-Human/PRP/ADP Assay is useful for evaluating therapeutic compounds.
Platelet-rich plasma was prepared from healthy human volunteers for use in determining inhibition of platelet aggregation by the compounds. Blood was collected via a 21 gauge butterfly cannula, using a two-syringe technique into 1/10 volume of 10% trisodium citrate.
Platelet-rich plasma was prepared at room temperature by centrifugation of the citrated whole blood at 100 x g for 15 minutes. The platelet rich plasma contained approximately 200-400,000 platelets/µl.
Platelet-poor plasma was prepared by centrifugation of citrated whole blood at 12,000 x g for 2 minutes.
Platelet aggregation was assayed in a 4-channel platelet aggregation profiler (PAP-4, Biodata, Hatboro, PA) according to the manufacturers directions. Inhibition of platelet aggregation was studied by adding varying amounts of test compounds to stirred human platelet-rich plasma. Specifically, the human platelet-rich plasma was incubated with test compounds for 1 minute at 37°C prior to the addition of a variety of aggregating agents most often ADP 5 µM, but also 1 µg/ml collagen, 1 µM U46619 or 1 µM platelet activating factor.

T1 sequence (P08514 32-887 limits assumed): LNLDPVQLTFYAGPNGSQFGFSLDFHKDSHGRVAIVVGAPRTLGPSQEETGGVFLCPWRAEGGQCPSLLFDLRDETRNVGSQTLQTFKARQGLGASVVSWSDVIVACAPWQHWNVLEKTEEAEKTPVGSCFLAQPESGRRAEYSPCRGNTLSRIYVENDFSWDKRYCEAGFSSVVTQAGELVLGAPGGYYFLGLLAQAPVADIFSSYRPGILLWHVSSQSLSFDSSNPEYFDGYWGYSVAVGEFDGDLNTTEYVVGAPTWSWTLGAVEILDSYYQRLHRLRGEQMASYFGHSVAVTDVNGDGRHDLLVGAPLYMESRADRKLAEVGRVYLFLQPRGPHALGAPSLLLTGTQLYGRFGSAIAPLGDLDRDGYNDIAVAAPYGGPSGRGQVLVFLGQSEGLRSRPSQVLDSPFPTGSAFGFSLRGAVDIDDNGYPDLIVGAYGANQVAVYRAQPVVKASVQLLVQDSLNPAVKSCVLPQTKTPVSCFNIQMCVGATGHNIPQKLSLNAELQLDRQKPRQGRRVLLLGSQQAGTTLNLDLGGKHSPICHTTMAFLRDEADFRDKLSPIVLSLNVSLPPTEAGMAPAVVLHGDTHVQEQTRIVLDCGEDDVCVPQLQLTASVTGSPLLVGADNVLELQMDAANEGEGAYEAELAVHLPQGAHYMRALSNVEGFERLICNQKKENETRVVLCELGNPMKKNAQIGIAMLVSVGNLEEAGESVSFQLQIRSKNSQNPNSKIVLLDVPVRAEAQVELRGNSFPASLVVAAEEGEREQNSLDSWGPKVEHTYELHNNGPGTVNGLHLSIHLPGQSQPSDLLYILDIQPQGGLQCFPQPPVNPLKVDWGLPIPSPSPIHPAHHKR
T1 sequence (P08514 891-1039 partner limits assumed): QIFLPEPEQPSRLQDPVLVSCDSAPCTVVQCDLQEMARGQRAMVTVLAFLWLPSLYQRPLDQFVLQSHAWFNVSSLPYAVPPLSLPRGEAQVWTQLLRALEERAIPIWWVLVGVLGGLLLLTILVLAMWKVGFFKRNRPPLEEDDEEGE
T1 sequence (P05106 27-788): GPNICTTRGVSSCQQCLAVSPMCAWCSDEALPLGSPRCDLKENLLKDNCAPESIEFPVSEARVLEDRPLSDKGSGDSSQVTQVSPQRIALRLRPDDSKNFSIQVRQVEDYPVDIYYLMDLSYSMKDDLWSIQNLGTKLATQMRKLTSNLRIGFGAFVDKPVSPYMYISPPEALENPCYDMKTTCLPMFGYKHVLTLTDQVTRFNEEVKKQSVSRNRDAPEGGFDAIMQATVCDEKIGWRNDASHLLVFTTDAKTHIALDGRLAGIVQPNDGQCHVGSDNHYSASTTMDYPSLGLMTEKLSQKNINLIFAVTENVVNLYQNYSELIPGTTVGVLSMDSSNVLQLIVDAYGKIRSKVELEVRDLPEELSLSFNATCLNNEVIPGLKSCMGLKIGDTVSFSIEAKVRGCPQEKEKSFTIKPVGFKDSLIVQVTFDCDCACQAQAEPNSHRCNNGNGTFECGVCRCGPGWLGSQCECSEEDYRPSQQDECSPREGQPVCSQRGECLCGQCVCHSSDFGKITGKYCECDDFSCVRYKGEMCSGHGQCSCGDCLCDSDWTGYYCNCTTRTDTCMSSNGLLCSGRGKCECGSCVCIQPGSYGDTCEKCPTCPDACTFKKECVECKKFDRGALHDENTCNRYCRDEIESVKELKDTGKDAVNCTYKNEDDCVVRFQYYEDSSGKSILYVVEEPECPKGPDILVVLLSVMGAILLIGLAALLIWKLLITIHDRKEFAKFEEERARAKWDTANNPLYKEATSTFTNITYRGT

Row | Structure (SMILES) | IC50 [1] [µM] | IC50 [2] [µM]
1 | N=C(N)c1ccc2[nH]c(C(=O)NCc3ccc(CCC(=O)O)cc3)cc2c1 [Example 9] | 4.45 | 40
2 | CCCC(CC1CCC(CNC(=O)c2cc3cc(C(=N)N)ccc3[nH]2)CC1)C(=O)O (stereo not drawn) [Example 11] | > 100 | > 100
3 | N=C(N)c1ccc2[nH]c(C(=O)NCCOCCCC(=O)O)cc2c1 [Example 12] | 1.2 | 9
4 | CC(CCCCCNC(=O)c1cc2cc(C(=N)N)ccc2[nH]1)C(=O)O (stereo not drawn) [Example 13] | 5.25 | 28
5 | CCC(CCCCCNC(=O)c1cc2cc(C(=N)N)ccc2[nH]1)C(=O)O (stereo not drawn) [Example 14] | 21.5 | > 100
6 | CCCCCCC(CCCCCNC(=O)c1cc2cc(C(=N)N)ccc2[nH]1)C(=O)O (stereo not drawn) [Example 16] | 19 | > 100
7 | CC(CCCCNC(=O)c1cc2cc(C(=N)N)ccc2[nH]1)CC(=O)O (stereo not drawn) [Example 17] | 0.21 | 2.7
8 | CCC(CCCCNC(=O)c1cc2cc(C(=N)N)ccc2[nH]1)CC(=O)O (stereo not drawn) [Example 18] | 0.33 | 5.8
9 | CCCCC(CCCCNC(=O)c1cc2cc(C(=N)N)ccc2[nH]1)CC(=O)O (stereo not drawn) [Example 19] | 0.63 | 30
10 | CCCCCCC(CCCCNC(=O)c1cc2cc(C(=N)N)ccc2[nH]1)CC(=O)O (stereo not drawn) [Example 20] | 0.8 | 70
11 | CN(CCCCCCC(=O)O)C(=O)c1cc2cc(C(=N)N)ccc2[nH]1 [Example 21] | 0.38 | 2.5
12 | N=C(N)c1ccc2oc(C(=O)NCCCCCCC(=O)O)cc2c1 [Example 22] | 0.04 | 0.27
13 | N=C(N)c1ccc2sc(C(=O)NCCCCCCC(=O)O)cc2c1 [Example 23] | 0.74 | 9
14 | N=C(N)c1ccc2cc(C(=O)NCCCCCCC(=O)O)[nH]c2c1 [Example 25] | 0.13 | 0.8
15 | N=C(N)c1ccc2[nH]c(C(=O)NCCCCCCC(=O)O)cc2c1 [Example 26] | 0.7 | 2.7
16 | N=C(N)c1ccc2[nH]c(C(=O)NCCCCC(=O)O)cc2c1 [Example 27] |  | 100
17 | N=C(N)c1ccc2[nH]c(C(=O)NCCCCCC(=O)O)cc2c1 [Example 28] | 42.7 | 100
18 | Cn1c(C(=O)NCCCCCCC(=O)O)cc2cc(C(=N)N)ccc21 [Example 30] | 3 | 8
19 | CC(CCCCNC(=O)c1cc2cc(C(=N)N)ccc2s1)CC(=O)O (stereo not drawn) [Example 31] | 0.32 | 3.3
20 | CC(CCCCNC(=O)c1cc2cc(C(=N)N)ccc2o1)CC(=O)O (stereo not drawn) [Example 32] | 0.01 | 0.23
21 | Cc1c(C(=O)NCCCCCCC(=O)O)[nH]c2ccc(C(=N)N)cc12 [Example 33] | 2.6 | 5
22 | N=C(N)c1ccc(COc2ccc3oc(C(=O)NCC(=O)O)cc3c2)cc1 [Example 35] | 3.4 | 100
23 | NCc1ccc2[nH]c(C(=O)NCCCCCCC(=O)O)cc2c1 [Example 36] | 4.23 | 25
